{"source": "paper PMC4835877", "about": "“HM71224, a novel Bruton’s tyrosine kinase inhibitor, suppresses B cell and monocyte activation and ameliorates arthritis in a mouse model: a potential drug for rheumatoid arthritis” (Arthritis Research & Therapy, 2016)", "key": {"BLK": {"biological_target": "T1, BLK (Homo sapiens, UniProt P51451)", "T1 construct": "purchased ThermoFisher Scientific (contract research organization)", "T1 sequence (P51451 whole entry)": "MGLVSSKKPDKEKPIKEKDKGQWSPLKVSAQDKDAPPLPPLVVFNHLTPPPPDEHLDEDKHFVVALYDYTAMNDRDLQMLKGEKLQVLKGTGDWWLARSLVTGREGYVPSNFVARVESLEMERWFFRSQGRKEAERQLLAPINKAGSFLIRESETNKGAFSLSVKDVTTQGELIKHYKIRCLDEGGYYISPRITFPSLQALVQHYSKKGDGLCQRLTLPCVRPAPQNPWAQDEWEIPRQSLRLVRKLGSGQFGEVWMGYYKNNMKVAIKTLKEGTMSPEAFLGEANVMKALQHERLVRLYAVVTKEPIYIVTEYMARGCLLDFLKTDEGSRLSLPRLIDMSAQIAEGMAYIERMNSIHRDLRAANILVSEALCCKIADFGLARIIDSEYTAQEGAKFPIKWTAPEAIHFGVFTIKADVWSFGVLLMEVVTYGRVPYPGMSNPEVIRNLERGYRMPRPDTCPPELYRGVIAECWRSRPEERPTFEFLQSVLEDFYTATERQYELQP", "assay": "FRET-based Z'-Lyte kinase assay", "conditions": "read-out: Biochemical Inhibition, IC50", "description": "(§1) To determine the biochemical selectivity of HM71224, we tested more than 85 kinases using the fluorescence resonance energy transfer (FRET) method."}, "BMX": {"biological_target": "T2, BMX (Homo sapiens, UniProt P51813)", "T2 construct": "purchased ThermoFisher Scientific (contract research organization)", "assay": "FRET-based Z'-Lyte kinase assay", "conditions": "read-out: Biochemical Inhibition, IC50", "description": "as §1"}, "CSK": {"biological_target": "T3, CSK (Homo sapiens, UniProt P41240)", "T3 construct": "purchased ThermoFisher Scientific (contract research organization)", "T3 sequence (P41240 whole entry)": "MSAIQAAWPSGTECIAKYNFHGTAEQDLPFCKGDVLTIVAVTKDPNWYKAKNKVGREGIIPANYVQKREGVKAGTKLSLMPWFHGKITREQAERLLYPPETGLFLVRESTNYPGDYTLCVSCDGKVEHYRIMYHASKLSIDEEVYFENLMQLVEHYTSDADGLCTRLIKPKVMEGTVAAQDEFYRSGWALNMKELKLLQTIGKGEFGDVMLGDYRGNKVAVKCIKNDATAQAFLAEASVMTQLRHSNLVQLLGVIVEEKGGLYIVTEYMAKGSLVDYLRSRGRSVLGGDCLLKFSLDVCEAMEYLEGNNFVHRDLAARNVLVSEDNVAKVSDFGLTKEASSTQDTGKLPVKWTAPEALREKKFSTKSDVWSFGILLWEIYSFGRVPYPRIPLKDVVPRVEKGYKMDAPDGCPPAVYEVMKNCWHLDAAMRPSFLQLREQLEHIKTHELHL", "assay": "FRET-based Z'-Lyte kinase assay", "conditions": "read-out: Biochemical Inhibition, IC50", "description": "as §1"}, "ITK": {"biological_target": "T4, ITK (Homo sapiens, UniProt Q08881)", "T4 construct": "purchased ThermoFisher Scientific (contract research organization)", "assay": "FRET-based Z'-Lyte kinase assay", "conditions": "read-out: Biochemical Inhibition, IC50", "description": "as §1"}, "LCK": {"biological_target": "T5, LCK (Homo sapiens, UniProt P06239)", "T5 construct": "purchased ThermoFisher Scientific (contract research organization)", "T5 sequence (P06239 whole entry)": "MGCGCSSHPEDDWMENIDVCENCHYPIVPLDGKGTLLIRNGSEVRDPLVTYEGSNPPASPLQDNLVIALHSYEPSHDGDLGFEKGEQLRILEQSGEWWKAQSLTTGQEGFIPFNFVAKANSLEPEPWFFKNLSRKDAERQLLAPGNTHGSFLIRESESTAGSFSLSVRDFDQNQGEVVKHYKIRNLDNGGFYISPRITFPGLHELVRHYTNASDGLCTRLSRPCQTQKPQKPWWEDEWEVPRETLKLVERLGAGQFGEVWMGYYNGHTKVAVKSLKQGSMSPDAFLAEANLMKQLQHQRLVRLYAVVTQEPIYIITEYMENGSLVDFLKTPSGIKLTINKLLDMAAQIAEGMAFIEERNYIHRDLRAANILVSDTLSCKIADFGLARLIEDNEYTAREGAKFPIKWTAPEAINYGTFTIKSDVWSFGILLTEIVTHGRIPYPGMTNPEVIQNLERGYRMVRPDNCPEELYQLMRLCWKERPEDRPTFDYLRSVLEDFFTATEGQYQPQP", "assay": "FRET-based Z'-Lyte kinase assay", "conditions": "read-out: Biochemical Inhibition, IC50", "description": "as §1"}, "LYN": {"biological_target": "T6, LYN (Homo sapiens, UniProt P07948)", "T6 construct": "purchased ThermoFisher Scientific (contract research organization)", "assay": "FRET-based Z'-Lyte kinase assay", "conditions": "read-out: Biochemical Inhibition, IC50", "description": "as §1"}, "TEC": {"biological_target": "T7, TEC (Homo sapiens, UniProt P42680)", "T7 construct": "purchased ThermoFisher Scientific (contract research organization)", "T7 sequence (P42680 whole entry)": "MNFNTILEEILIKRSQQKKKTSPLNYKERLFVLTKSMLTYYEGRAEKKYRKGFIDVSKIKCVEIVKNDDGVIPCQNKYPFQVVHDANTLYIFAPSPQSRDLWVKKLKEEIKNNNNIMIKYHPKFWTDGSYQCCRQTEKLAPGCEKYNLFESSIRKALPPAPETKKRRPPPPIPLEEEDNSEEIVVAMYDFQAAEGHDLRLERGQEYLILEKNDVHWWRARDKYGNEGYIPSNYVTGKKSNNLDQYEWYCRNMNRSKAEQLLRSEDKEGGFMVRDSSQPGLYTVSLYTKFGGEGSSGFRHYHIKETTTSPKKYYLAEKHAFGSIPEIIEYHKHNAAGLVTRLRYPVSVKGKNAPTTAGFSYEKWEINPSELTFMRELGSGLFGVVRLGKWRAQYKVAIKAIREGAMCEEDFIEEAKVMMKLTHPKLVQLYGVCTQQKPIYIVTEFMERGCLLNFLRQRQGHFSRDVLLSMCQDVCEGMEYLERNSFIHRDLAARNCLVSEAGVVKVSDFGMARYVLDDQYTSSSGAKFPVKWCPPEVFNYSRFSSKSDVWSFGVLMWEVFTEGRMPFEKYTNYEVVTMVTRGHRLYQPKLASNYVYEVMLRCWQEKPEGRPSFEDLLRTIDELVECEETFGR", "assay": "FRET-based Z'-Lyte kinase assay", "conditions": "read-out: Biochemical Inhibition, IC50", "description": "as §1"}, "TXK": {"biological_target": "T8, TXK (Homo sapiens, UniProt P42681)", "T8 construct": "purchased ThermoFisher Scientific (contract research organization)", "T8 sequence (P42681 whole entry)": "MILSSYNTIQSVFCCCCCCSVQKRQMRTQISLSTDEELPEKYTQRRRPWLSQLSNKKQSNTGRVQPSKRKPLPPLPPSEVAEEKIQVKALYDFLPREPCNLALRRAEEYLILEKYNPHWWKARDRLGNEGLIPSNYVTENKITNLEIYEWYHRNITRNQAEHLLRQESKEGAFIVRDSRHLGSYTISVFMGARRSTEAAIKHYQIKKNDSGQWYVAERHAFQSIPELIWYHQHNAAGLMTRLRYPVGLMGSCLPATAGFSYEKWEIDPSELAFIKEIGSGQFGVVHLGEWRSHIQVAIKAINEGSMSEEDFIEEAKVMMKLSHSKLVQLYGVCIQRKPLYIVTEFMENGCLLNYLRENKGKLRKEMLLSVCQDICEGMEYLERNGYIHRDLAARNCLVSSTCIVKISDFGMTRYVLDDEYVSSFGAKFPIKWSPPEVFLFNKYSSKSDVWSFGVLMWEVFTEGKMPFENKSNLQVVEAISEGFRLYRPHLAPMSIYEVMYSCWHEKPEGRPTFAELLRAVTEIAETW", "assay": "FRET-based Z'-Lyte kinase assay", "conditions": "read-out: Biochemical Inhibition, IC50", "description": "as §1"}, "YES": {"biological_target": "T9, YES (Homo sapiens, UniProt P07947)", "T9 construct": "purchased ThermoFisher Scientific (contract research organization)", "T9 sequence (P07947 whole entry)": "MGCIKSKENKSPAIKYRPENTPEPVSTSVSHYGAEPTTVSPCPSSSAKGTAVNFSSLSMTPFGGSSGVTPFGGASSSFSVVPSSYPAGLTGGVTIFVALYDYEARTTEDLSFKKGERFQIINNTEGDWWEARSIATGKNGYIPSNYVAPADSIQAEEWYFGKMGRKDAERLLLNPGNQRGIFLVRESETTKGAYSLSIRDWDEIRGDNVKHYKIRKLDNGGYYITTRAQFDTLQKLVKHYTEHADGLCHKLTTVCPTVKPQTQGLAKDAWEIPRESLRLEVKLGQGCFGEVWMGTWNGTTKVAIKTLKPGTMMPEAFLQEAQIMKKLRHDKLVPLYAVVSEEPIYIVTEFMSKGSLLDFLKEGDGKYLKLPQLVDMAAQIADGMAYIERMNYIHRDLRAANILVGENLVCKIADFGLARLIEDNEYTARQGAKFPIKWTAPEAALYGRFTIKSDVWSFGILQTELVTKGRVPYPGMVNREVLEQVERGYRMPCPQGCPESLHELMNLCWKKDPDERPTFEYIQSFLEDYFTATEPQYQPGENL", "assay": "FRET-based Z'-Lyte kinase assay", "conditions": "read-out: Biochemical Inhibition, IC50", "description": "as §1"}, "[1]": {"test_system": "EGFR-overexpressed A431 cells", "assay": "Cellular growth of EGFR-overexpressed A431 cells", "type": "cell-based"}, "BTK [2]": {"biological_target": "T10, BTK (Homo sapiens, UniProt Q06187)", "T10 sequence (Q06187 whole entry)": "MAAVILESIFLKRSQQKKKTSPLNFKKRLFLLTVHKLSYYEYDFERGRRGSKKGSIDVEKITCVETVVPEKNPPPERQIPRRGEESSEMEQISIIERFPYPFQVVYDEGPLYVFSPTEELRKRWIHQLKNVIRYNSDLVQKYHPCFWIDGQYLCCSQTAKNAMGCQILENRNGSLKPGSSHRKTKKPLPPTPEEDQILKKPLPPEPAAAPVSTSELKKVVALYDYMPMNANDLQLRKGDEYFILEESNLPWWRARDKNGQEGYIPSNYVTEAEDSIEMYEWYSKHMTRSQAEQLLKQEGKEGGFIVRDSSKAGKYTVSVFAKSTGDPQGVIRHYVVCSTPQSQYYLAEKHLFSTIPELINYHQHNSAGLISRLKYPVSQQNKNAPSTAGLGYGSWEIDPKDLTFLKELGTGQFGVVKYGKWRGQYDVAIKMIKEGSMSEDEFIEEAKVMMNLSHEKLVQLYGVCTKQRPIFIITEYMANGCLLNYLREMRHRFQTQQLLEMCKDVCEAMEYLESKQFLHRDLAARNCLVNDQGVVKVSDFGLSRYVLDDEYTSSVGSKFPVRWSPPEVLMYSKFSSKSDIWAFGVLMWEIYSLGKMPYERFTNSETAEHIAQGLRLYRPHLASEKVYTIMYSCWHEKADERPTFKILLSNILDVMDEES", "assay": "Btk occupancy in Ramos cells (biotinylated probe)", "type": "cell-based", "description": "After treatment with HM71224, cells were lysed and then incubated for 1 h with 1 μM of biotinylated probe (HM71224 derivative). The lysed cells were loaded into streptavidin-coated wells and then incubated with an anti-Btk antibody (1:1000; clone number D3H5, Cell signaling Technology, Danvers, MA, USA) for 1 h, followed by a secondary HRP-conjugated antibody (1:10000; EMD Millipore Corporation, Billerica, MA, USA) at room temperature for 1 h. After washing, 100 μL of colorimetric solution (R&D systems, Minneapolis, MN, USA) was added, and the reaction was stopped 30 minutes later by addition of 100 μL of sulfuric acid (0.2 moles/L). The plate was read with the absorbance reader at 450 nm.\nTo measure Btk occupancy by immunoprecipitation (IP), biotinylated HM71224 probes were preincubated with cell lysates for 1 h at 4 °C. Streptavidin-coated beads were then added, and the mixture was incubated overnight at 4 °C. Immunoblotting was then performed, and band density was measured using MultiGauge V3.0 software (FUJI FILM, Tokyo, Japan). Untreated biotinylated probes were set at 100 %."}, "[3]": {"test_system": "activated primary human B cells", "assay": "Surface activation marker expression by activated B cells (flow cytometry)", "type": "cell-based", "conditions": "B-cell, anti-IgM F(ab')2 for 24 h", "description": "Human PBMCs (10^6 cells/mL) were allowed to rest at 37 °C for 2 h. […] To examine changes in the expression of surface activation markers, cells were stained with anti-CD3-FITC (SK7; BD Biosciences), anti-CD19-PE (HIB19; BD Biosciences), anti-CD40-PE-Cy7 (5C3; BD Biosciences), anti-CD69-V450 (FN50; BD Biosciences), and anti-CD86-PerCP-Cy5.5 (2331 (FUN-1); BD Biosciences) antibodies."}, "BTK [4]": {"biological_target": "T10, BTK", "assay": "Btk occupancy in human PBMCs (biotinylated probe)", "type": "cell-based", "conditions": "primary human cells (PBMCs), 100 nM"}, "human CD14+ monocytes": {"test_system": "human CD14+ monocytes", "assay": "Cytokine production by IC-stimulated human monocytes (ELISA)", "type": "cell-based", "conditions": "heat-inactivated ICs, increasing concentrations", "experimental": "(§2) Human monocytes were stimulated with heat-inactivated ICs at 37 °C for 30 minutes in the presence of increasing concentrations of HM71224. Human PDCs were stimulated with lipopolysaccharide (LPS) or CpG ODN 2006 (ThermoFisher Scientific) for 48 h in the absence or presence of HM71224 (1 μM). The production of tumor necrosis factor (TNF)-α, interleukin (IL)-1β, and IL-6 was then measured using a commercial ELISA (R&D Systems). […] The levels of the indicated cytokines in the culture supernatant were then measured by ELISA at 5 h post stimulation. […] The levels of the indicated cytokines in the culture supernatant were then measured by ELISA at 48 h post stimulation.*P < 0.05, **P < 0.01, and ***P < 0.001 vs. no treatment. LPS lipopolysaccharide"}, "[5]": {"test_system": "human plasmacytoid dendritic cells", "assay": "Cytokine production by human PDCs stimulated with CpG ODN or LPS (ELISA)", "type": "cell-based", "conditions": "CpG ODN (TLR9 agonist), 1 μM, 48 h", "experimental": "as §2"}, "CD3+ T cells": {"test_system": "CD3+ T cells", "assay": "T cell signaling, phospho-flow of CD3/CD28-activated PBMCs", "type": "cell-based, human", "conditions": "CD3- and CD28-conjugated beads", "description": "For phospho-flow, B cells were activated by crosslinking their BCRs with anti-human IgM antibodies (10 μg/mL; BD Biosciences) for 10 minutes at 37 °C. Cells were then fixed with 2 % paraformaldehyde at 37 °C for 12 minutes, permeabilized, and stained with anti-CD3-FITC (SK7; BD Biosciences), anti-CD20-PerCP-Cy5.5 (H1; BD Biosciences), anti-pBtk (Y223)-Alexa647 (N35-86; BD Biosciences), anti-pPLCγ2 (Y759)-Alexa647 (K86-689.37; BD Biosciences), anti-pSTAT1 (Y701)-Alexa647 (4a; BD Biosciences), anti-pSTAT3 (Y705)-Alexa647 (4/P-STAT3; BD Biosciences), anti-pSTAT5 (Y694)-Alexa647 (47; BD Biosciences), and anti-pERK1/2 (T202/204)-Alexa647 (20A; BD Biosciences) antibodies. The cells were then washed and analyzed on an LSR II flow cytometer (BD Biosciences). Data were analyzed using FlowJo software, version 8.8 (Treestar, Ashland, OR, USA).\nFigure S5. Effect of HM71224 on human T cell signaling. […] The expression level of p-STAT1, p-STAT3, p-STAT5, and p-ERK1/2 by CD3+ T cells was then measured by phospho-flow cytometry."}, "BTK [6]": {"biological_target": "T10, BTK", "assay": "Kinome Binding Tree Spot analysis, Scan Max (DiscoveRx)", "set-up": "purchased DiscoveRx (Scan Max panel)", "conditions": "concentration of 2 μM"}, "BTK [7]": {"biological_target": "T10, BTK", "assay": "FRET-based Z'-Lyte kinase assay", "set-up": "purchased ThermoFisher Scientific (contract research organization)", "conditions": "read-out: Biochemical Inhibition, IC50", "description": "as §1"}, "EGFR [8]": {"biological_target": "T11, EGFR (Homo sapiens, UniProt P00533)", "T11 sequence (P00533 25-1210)": "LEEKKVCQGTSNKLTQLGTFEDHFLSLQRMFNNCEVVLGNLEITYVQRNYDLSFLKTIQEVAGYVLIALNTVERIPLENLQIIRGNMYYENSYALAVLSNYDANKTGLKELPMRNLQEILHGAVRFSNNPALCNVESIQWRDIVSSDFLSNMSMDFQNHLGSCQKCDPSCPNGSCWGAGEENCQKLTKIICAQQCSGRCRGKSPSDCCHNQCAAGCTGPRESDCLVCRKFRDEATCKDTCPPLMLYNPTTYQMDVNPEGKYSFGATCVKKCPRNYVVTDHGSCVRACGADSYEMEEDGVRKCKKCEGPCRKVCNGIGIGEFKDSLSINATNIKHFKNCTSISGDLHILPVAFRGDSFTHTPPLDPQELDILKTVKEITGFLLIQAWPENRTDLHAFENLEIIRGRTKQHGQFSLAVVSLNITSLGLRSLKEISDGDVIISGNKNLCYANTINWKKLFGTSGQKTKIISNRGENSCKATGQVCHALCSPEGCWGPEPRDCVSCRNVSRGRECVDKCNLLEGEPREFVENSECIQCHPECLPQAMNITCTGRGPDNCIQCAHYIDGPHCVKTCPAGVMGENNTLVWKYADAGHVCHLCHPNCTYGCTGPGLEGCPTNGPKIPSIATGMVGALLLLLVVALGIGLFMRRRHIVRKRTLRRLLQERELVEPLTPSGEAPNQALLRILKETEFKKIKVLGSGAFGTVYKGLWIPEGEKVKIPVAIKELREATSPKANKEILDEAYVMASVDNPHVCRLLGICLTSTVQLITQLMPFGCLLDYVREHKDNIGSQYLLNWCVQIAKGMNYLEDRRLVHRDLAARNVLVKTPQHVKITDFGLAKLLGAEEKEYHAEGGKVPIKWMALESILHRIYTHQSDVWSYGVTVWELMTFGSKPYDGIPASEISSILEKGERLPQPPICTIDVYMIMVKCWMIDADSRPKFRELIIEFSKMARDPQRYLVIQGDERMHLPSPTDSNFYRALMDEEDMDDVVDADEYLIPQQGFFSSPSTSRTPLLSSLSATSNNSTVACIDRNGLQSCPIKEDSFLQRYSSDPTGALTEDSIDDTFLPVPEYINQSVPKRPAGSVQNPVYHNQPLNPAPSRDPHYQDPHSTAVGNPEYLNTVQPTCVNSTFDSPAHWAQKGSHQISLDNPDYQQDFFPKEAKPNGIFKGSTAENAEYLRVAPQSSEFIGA", "assay": "FRET-based Z'-Lyte kinase assay", "set-up": "purchased ThermoFisher Scientific (contract research organization)", "conditions": "read-out: Biochemical Inhibition, IC50", "description": "as §1"}, "EGFR [9]": {"biological_target": "T11, EGFR", "assay": "Phosphorylation of EGFR in cells", "type": "cell-based", "set-up": "EGFR-overexpressing epidermoid carcinoma A431 cell line; endogenous in cells; host or cells: A431", "conditions": "cellular; read-out: IC50 on inhibiting EGFR phosphorylation"}}, "note": "Read-outs that look alike come from different tables or passages of the source.", "data": [{"smiles": "C=CC(=O)Nc1cccc(Oc2nc(Nc3ccc(N4CCN(C)CC4)cc3)nc3ccoc23)c1", "note": "[HM71224]", "values": [{"measurement": "IC50", "setting": "BLK", "value": 13.5, "unit": "nM"}, {"measurement": "IC50", "setting": "BMX", "value": 0.64, "unit": "nM"}, {"measurement": "IC50", "setting": "CSK", "value": "> 1000", "unit": "nM"}, {"measurement": "IC50", "setting": "ITK", "value": 103, "unit": "nM"}, {"measurement": "IC50", "setting": "LCK", "value": "> 1000", "unit": "nM"}, {"measurement": "IC50", "setting": "LYN", "value": "> 1000", "unit": "nM"}, {"measurement": "IC50", "setting": "TEC", "value": 4.57, "unit": "nM"}, {"measurement": "IC50", "setting": "TXK", "value": 4.62, "unit": "nM"}, {"measurement": "IC50", "setting": "YES", "value": 562, "unit": "nM"}, {"measurement": "GI50", "setting": "[1]; Homo sapiens, A-431, read-out: GI50, concentration to inhibit 50 % of cellular growth, EGFR-overexpressed A431 cells", "value": 1000, "unit": "nM"}, {"measurement": "GI50", "setting": "[1]; read-out: GI50, concentration to inhibit 50 % of cellular growth, EGFR-overexpressed A431 cells", "value": "> 1000", "unit": "nM"}, {"measurement": "Btk molecules occupied", "setting": "BTK [2]; 10 nM", "value": "approximately 90%"}, {"measurement": "Btk molecules occupied", "setting": "BTK [2]; 100 nM", "value": "~100", "unit": "%"}, {"measurement": "IC50", "setting": "[3]; read-out: IC50, surface expression of CD40", "value": 4.2, "unit": "nM"}, {"measurement": "IC50", "setting": "[3]; read-out: IC50, surface expression of CD69", "value": 4.2, "unit": "nM"}, {"measurement": "IC50", "setting": "[3]; read-out: IC50, surface expression of CD86", "value": 7.7, "unit": "nM"}, {"measurement": "Btk sites occupied", "setting": "BTK [4]", "value": "> 70", "unit": "%"}, {"measurement": "Production of TNF-α, IL-1β, and IL-6", "setting": "human CD14+ monocytes", "value": "inhibited in a dose-dependent manner"}, {"measurement": "CpG-mediated production of TNF-α and IL-6", "setting": "[5]", "value": "inhibited CpG-mediated cytokine production"}, {"measurement": "T cell receptor signaling (p-STAT1, p-STAT3 and p-STAT5)", "setting": "CD3+ T cells", "value": "not affected"}, {"measurement": "p-ERK1/2 in CD3+ T cells", "setting": "CD3+ T cells", "value": "inhibited"}, {"measurement": "Kinome binding selectivity", "setting": "BTK [6]", "value": "selectively bound to Btk"}, {"measurement": "IC50", "setting": "BTK [7]", "value": 1.95, "unit": "nM"}, {"measurement": "IC50", "setting": "EGFR [8]", "value": 4.96, "unit": "nM"}, {"measurement": "IC50", "setting": "EGFR [9]", "value": 800, "unit": "nM"}]}]}
